{
  "source": "ChEMBL document CHEMBL5465560",
  "about": "“Selectivity Literature for EUbOPEN Chemogenomic Library” (2024)",
  "key": {"[1]": {"target": "T1, Interleukin-1 receptor-associated kinase 3 (Homo sapiens) (UniProt Q9Y616)", "T1 sequence (whole entry)": "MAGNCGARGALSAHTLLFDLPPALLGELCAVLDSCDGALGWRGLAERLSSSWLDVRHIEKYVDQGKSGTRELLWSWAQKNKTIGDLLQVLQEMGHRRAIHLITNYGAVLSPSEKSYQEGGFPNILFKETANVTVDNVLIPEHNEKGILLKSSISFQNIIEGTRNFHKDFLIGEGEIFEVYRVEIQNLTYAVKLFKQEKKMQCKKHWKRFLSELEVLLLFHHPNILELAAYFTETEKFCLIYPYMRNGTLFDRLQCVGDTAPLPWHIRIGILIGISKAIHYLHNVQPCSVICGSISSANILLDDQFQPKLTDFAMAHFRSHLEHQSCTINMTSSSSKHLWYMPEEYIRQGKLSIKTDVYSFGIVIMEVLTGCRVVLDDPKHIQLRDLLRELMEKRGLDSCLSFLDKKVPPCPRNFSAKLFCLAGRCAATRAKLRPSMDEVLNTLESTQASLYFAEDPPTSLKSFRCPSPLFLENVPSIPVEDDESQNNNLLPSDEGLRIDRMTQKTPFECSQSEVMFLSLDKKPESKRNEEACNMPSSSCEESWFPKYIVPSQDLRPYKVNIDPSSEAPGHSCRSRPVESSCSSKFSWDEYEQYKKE", "conditions": "at 10 µM"}, "[2]": {"target": "T2, cAMP-dependent protein kinase catalytic subunit PRKX (Homo sapiens) (UniProt P51817)", "T2 sequence (whole entry)": "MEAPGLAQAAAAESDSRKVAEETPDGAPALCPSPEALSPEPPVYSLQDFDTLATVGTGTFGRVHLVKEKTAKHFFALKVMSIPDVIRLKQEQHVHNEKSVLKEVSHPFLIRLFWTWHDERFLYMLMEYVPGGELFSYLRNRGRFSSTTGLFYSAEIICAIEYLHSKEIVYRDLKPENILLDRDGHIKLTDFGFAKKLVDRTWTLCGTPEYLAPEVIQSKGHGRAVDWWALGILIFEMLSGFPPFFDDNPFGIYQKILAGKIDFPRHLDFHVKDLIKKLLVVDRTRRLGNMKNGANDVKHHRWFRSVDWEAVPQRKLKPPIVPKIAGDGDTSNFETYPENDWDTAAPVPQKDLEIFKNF", "experiment": "Selectivity interaction (Ambit KINOMEscan and KiNATiv profiling in Jurkat cells) EUB0000090b PRKX", "type": "cell-based", "conditions": "at 1 µM"}, "[3]": {"target": "T3, Histone-lysine N-methyltransferase SUV39H1 (Homo sapiens) (UniProt O43463)", "T3 sequence (whole entry)": "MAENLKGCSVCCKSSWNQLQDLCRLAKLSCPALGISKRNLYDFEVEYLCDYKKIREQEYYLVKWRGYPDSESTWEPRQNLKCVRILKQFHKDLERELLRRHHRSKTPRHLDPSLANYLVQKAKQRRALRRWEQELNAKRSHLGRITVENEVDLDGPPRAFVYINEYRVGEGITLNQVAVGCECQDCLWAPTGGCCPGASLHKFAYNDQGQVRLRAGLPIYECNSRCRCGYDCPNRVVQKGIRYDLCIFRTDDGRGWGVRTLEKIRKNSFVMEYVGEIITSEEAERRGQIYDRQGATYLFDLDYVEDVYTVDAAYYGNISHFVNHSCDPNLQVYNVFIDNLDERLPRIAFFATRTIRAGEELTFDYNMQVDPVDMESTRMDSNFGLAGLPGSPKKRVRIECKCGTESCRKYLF", "experiment": "Selectivity interaction (Methyltransferase screen (Scintillation proximity assays)) EUB0000255b SUV39H1"}, "[4]": {"target": "T4, Serine/threonine-protein kinase Nek3 (Homo sapiens) (UniProt P51956)", "T4 sequence (whole entry)": "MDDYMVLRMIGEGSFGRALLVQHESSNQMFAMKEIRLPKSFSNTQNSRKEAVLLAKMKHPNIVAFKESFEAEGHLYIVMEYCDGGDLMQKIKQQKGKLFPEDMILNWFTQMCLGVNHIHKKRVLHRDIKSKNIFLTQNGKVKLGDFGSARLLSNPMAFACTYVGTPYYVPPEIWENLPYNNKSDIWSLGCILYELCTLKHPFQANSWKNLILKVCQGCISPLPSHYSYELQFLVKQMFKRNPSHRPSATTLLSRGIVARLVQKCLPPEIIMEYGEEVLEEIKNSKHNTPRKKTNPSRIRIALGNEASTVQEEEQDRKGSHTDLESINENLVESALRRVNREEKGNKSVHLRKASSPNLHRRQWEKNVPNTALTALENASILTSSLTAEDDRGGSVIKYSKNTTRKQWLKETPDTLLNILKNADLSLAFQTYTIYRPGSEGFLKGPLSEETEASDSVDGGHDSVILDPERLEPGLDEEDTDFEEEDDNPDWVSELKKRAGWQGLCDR", "conditions": "at 10 µM"}, "[5]": {"target": "5'-AMP-activated protein kinase catalytic subunit alpha-1 (Homo sapiens, UniProt Q13131)", "sequence (Q13131 whole entry, looked up)": "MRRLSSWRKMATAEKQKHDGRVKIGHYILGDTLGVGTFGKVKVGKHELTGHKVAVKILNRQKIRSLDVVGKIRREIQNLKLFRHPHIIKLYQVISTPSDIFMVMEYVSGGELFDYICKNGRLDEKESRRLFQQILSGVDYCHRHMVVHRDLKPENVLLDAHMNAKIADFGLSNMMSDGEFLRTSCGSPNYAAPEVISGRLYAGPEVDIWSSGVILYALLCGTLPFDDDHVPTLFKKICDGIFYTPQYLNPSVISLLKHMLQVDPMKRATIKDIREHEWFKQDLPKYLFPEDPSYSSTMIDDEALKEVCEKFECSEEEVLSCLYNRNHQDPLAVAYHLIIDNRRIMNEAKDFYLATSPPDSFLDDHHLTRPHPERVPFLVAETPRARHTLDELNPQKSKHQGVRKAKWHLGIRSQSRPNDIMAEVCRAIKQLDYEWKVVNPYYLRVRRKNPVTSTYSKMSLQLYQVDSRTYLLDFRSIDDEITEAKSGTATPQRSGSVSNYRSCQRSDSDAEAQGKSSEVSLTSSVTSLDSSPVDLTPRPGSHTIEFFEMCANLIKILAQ", "experiment": "Selectivity interaction (ActivX KiNativ screen (ex vivo kinase selectivity in human PBMCs)) EUB0001619a PRKAA1", "type": "cell-based", "conditions": "PBMC, at 1 µM"}, "[6]": {"target": "Tyrosine-protein kinase ABL2 (Homo sapiens, UniProt P42684)", "sequence (P42684 whole entry)": "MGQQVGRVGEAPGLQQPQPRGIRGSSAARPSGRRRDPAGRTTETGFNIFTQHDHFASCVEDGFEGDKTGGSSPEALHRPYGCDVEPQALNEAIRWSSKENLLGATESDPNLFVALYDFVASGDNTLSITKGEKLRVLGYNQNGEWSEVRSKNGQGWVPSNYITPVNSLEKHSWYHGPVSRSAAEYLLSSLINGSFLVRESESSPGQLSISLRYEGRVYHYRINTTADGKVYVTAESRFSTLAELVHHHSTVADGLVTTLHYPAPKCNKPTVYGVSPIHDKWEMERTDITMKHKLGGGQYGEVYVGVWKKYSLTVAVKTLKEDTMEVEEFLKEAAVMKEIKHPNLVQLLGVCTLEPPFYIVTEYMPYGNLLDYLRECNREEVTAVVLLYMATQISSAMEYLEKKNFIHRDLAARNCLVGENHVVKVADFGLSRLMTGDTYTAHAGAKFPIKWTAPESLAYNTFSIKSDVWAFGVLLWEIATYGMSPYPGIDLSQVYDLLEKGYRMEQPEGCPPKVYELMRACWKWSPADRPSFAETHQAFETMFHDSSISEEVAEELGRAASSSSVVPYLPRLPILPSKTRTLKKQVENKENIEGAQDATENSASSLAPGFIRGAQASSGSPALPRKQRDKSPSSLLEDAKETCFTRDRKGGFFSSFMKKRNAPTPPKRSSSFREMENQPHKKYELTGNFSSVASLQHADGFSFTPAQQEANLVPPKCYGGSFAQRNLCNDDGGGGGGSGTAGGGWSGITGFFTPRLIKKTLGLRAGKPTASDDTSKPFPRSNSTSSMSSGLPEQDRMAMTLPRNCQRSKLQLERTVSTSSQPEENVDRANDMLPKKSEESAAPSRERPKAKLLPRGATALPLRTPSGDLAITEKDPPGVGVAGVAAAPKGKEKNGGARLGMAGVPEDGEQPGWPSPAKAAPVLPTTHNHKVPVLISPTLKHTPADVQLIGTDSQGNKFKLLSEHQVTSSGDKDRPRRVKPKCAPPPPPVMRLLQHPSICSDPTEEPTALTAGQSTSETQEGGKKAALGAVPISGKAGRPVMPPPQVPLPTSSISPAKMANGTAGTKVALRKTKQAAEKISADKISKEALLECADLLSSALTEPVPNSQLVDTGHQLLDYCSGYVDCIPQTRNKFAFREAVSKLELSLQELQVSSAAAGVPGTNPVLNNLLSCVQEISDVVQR", "experiment": "Selectivity interaction (KinomeScan (DiscoverX)) EUB0000655a ABL2", "conditions": "at 10 µM"}, "[7]": {"target": "cAMP-dependent protein kinase catalytic subunit alpha (Homo sapiens, UniProt P17612)", "experiment": "Selectivity interaction (KinomeScan (DiscoverX)) EUB0000607a PRKACA", "conditions": "at 10 µM"}, "[8]": {"target": "Beta-2 adrenergic receptor (Homo sapiens, UniProt P07550)", "sequence (P07550 whole entry, looked up)": "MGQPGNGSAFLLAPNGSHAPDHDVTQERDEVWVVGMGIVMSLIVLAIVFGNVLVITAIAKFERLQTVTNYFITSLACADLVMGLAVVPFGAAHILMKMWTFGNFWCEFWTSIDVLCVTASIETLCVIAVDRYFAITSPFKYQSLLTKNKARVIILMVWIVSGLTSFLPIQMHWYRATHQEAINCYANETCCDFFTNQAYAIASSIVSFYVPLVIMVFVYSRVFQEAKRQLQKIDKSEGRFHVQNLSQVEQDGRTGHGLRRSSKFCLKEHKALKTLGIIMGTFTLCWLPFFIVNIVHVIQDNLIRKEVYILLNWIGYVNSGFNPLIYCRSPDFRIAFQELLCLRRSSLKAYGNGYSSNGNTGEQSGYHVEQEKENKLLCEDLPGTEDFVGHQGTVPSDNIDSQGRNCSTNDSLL", "experiment": "Selectivity interaction (Panel of non-epigenetic targets (kinases, GPCRs, ion channels, and transporters, Eurofins) ) EUB0000271b ADRB2", "conditions": "at 1 µM"}, "[9]": {"target": "T5, Activin receptor type-1 (Homo sapiens) (UniProt Q04771)", "T5 sequence (whole entry)": "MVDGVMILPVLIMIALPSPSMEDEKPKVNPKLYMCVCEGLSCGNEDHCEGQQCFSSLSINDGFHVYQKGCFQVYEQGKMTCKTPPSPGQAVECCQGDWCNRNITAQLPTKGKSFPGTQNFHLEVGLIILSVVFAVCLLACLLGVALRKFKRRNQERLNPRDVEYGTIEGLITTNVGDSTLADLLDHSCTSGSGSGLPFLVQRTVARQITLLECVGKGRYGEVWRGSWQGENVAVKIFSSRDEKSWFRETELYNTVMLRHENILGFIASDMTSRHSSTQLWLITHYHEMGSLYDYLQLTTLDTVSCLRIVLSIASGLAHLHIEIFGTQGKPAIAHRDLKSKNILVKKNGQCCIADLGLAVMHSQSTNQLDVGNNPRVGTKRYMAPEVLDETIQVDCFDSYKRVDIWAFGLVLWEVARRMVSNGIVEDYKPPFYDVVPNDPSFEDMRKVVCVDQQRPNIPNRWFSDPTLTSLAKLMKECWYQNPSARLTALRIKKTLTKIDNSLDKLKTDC", "experiment": "Selectivity interaction (ProQinase) EUB0000171b ACVR1"}},
  "data": [
    {"smiles": "CCN(CC)CCCCNc1ncc2cc(-c3cc(OC)cc(OC)c3)c(NC(=O)NC(C)(C)C)nc2n1", "values": [
      {"measurement": "% of control", "setting": "[1]", "value": 100, "unit": "%"}
    ]},
    {"smiles": "CN(C)C/C=C/C(=O)Nc1ccc(C(=O)N2CCCC(Nc3ncc(Cl)c(-c4c[nH]c5ccccc45)n3)C2)cc1", "note": "(stereo unspecified)", "values": [
      {"measurement": "% of control", "setting": "[2]", "value": 89, "unit": "%"}
    ]},
    {"smiles": "COCCN1CCC(c2cc(CN(C)C(=O)c3cccc(Oc4ccccc4)c3)ccn2)CC1", "values": [
      {"measurement": "% activity", "setting": "[3]; at 1 µM", "value": "> 95", "unit": "%"},
      {"measurement": "% activity", "setting": "[3]; at 10 µM", "value": "> 90", "unit": "%"}
    ]},
    {"smiles": "Cc1cc([C@@H](C)Nc2ccccc2C(=O)O)c2nc(N3CCOCC3)cc(=O)n2c1", "note": "[AZD-6482]", "values": [
      {"measurement": "% of control", "setting": "[4]", "value": 100, "unit": "%"}
    ]},
    {"smiles": "N#Cc1cccc(-c2c[nH]c3ncnc(N4CCOCC4)c23)c1", "values": [
      {"measurement": "% of inhibition", "setting": "[5]", "value": 16, "unit": "%"}
    ]},
    {"smiles": "CN(C)CCOc1ccc(-c2nc(-c3ccncc3)c(-c3ccc4c(c3)CC/C4=N\\O)[nH]2)cc1", "values": [
      {"measurement": "% of control", "setting": "[6]", "value": 55, "unit": "%"}
    ]},
    {"smiles": "CNC(=O)Nc1ccc(-c2nc(N3CC4CCC(C3)O4)c3cnn(C4CCC5(CC4)OCCO5)c3n2)cc1", "values": [
      {"measurement": "% of control", "setting": "[7]", "value": 75, "unit": "%"}
    ]},
    {"smiles": "Cc1cc(C)cc([C@@H]2c3cc(C)ccc3NC(=O)CN2C(=O)c2ccc(Br)s2)c1", "values": [
      {"measurement": "% of inhibition", "setting": "[8]", "value": -7, "unit": "%"}
    ]},
    {"smiles": "C=CC(=O)Nc1cccc(C(=O)Nc2ccc(Nc3cc(-c4[nH]c(SC)nc4C)ccn3)cc2)c1", "values": [
      {"measurement": "% of control", "setting": "[9]; at 1 µM", "value": 85, "unit": "%"},
      {"measurement": "% of control", "setting": "[9]; at 5 µM", "value": 54, "unit": "%"}
    ]}
  ]
}
